#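 Where inhibition never reached the appropriate level, the endpoint shown equals the highest concentration tested. Otherwise, values were interpolated linearly from a five-concentration, 48-hour dose response in 96-well plates. GI50 is the concentration that inhibits growth by half.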 Activity calls are given as the source filed them. No stated cut-off is given here; in the data, active = GI50 up to about 1.1 µM and inactive = higher.
# Key:
# Assay in all cases: NCI-60 cell line screen, 48 h
# K562 = system: K562
# KM12 = system: KM12
# SK-OV-3 = system: SK-OV-3
# Hs-578T = system: Hs-578T
# CCRF-CEM = system: CCRF-CEM
# COLO 205 = system: COLO 205
# RXF 393 = system: RXF 393
# ACHN = system: ACHN
# A549 = system: A549
# OVCAR-4 = system: OVCAR-4
# T47D = system: T47D
# BT-549 = system: BT-549
# IGROV-1 = system: IGROV-1
# SK-MEL-5 = system: SK-MEL-5
# SK-MEL-2 = system: SK-MEL-2
# HCT-15 = system: HCT-15
# EKVX = system: EKVX
# SNB-19 = system: SNB-19
# NCI/ADR-RES = system: NCI/ADR-RES
SMILES,GI50 (K562),GI50 (KM12),GI50 (SK-OV-3),GI50 (Hs-578T),GI50 (CCRF-CEM),GI50 (COLO 205),GI50 (RXF 393),GI50 (ACHN),GI50 (A549),GI50 (OVCAR-4),GI50 (T47D),GI50 (BT-549),GI50 (IGROV-1),GI50 (SK-MEL-5),GI50 (SK-MEL-2),GI50 (HCT-15) [µM],GI50 (EKVX),GI50 (SNB-19),GI50 (NCI/ADR-RES)
COc1cc2nc(-c3ccccc3)cc(O)c2cc1OC,4.76 µM (inactive),3.81 µM (inactive),35.6 µM (inactive),25.1 µM (inactive),8 µM (inactive),4.2 µM (inactive),21.2 µM (inactive),41.1 µM (inactive),18.5 µM (inactive),> 73.3 µM (inactive),> 100 µM (inactive),> 100 µM (inactive),28.2 µM (inactive),5.78 µM (inactive),22.4 µM (inactive),10.2,> 100 µM (inactive),25.2 µM (inactive),54.8 µM (inactive)
COC(=O)CC(=O)Nc1sccc1S(=O)(=O)c1ccccc1,80.7 µM (inactive),94.8 µM (inactive),> 100 µM (inactive),> 100 µM (inactive),> 100 µM (inactive),> 100 µM (inactive),44.4 µM (inactive),> 100 µM (inactive),> 100 µM (inactive),54.3 µM (inactive),> 100 µM (inactive),27.5 µM (inactive),> 100 µM (inactive),> 100 µM (inactive),66.2 µM (inactive),27.2,> 100 µM (inactive),> 100 µM (inactive),> 100 µM (inactive)
COc1ccccc1C1c2cc3c(cc2OC(N2CCCC2)C1C)OCO3 (stereo not given),15.1 µM (inactive),19.3 µM (inactive),,7.48 µM (inactive),19.5 µM (inactive),18 µM (inactive),3.76 µM (inactive),14.5 µM (inactive),18.4 µM (inactive),21.6 µM (inactive),13.9 µM (inactive),16.8 µM (inactive),19.3 µM (inactive),14.5 µM (inactive),14.8 µM (inactive),17.2,18.3 µM (inactive),17.9 µM (inactive),18.5 µM (inactive)
CCCCC(=O)N/S(=N/C(=O)c1ccccc1)C(Cl)(Cl)Cl (stereo not given),> 100 µM (inactive),> 100 µM (inactive),> 100 µM (inactive),> 100 µM (inactive),> 100 µM (inactive),> 100 µM (inactive),> 100 µM (inactive),> 100 µM (inactive),> 100 µM (inactive),> 100 µM (inactive),> 100 µM (inactive),> 100 µM (inactive),> 100 µM (inactive),> 100 µM (inactive),> 100 µM (inactive),> 100,> 100 µM (inactive),> 100 µM (inactive),> 100 µM (inactive)
Cc1ccc(NC(=O)c2cccc(OP(=O)(Nc3ccc(C)cc3)Nc3ccc(C)cc3)c2)cc1,> 100 µM (inactive),5.5 µM (inactive),24.9 µM (inactive),6.3 µM (inactive),13.8 µM (inactive),2.32 µM (inactive),1.91 µM (inactive),4 µM (inactive),3.46 µM (inactive),14 µM (inactive),5.53 µM (inactive),22.2 µM (inactive),15.1 µM (inactive),13.2 µM (inactive),15.3 µM (inactive),6.01,7.94 µM (inactive),35.1 µM (inactive),12 µM (inactive)
CN(NC(=O)c1cccs1)C1=NCCN1,> 100 µM (inactive),> 100 µM (inactive),> 100 µM (inactive),> 100 µM (inactive),> 100 µM (inactive),> 100 µM (inactive),> 100 µM (inactive),> 100 µM (inactive),> 100 µM (inactive),> 100 µM (inactive),> 100 µM (inactive),> 100 µM (inactive),> 100 µM (inactive),> 100 µM (inactive),> 100 µM (inactive),> 100,> 100 µM (inactive),> 100 µM (inactive),> 100 µM (inactive)
O=C1/C(=C/c2ccc(Cl)cc2)CSc2ccccc21,3.37 µM (inactive),10.1 µM (inactive),31.8 µM (inactive),4.57 µM (inactive),3.1 µM (inactive),25.3 µM (inactive),18.2 µM (inactive),,45.5 µM (inactive),36.1 µM (inactive),28 µM (inactive),27 µM (inactive),23.7 µM (inactive),20.6 µM (inactive),15.7 µM (inactive),4.62,,9.2 µM (inactive),16.6 µM (inactive)

# — ChEMBL document CHEMBL1201862, “PubChem BioAssay data set” (2004)
